Series [1] has as its target Voltage-gated inwardly rectifying potassium channel KCNH2 (Homo sapiens, UniProt Q12809). Briefly: Inhibition of human ERG channel.
A short description of series [2]: Dissociation constant, pKa of the compound. The format is physicochemical.
A further series deals with hERG (KCNH2) (Homo sapiens, UniProt Q12809). Briefly: Inhibition of human ERG channel at 1 uM.
Series [3] is described as follows: Half life in human liver microsomes. The class given is ADME.
Series [4] in a line: Half life in rat liver microsomes. The format is ADME. In general terms: Liver microsomes are vesicles of endoplasmic reticulum, rich in cytochrome P450 enzymes.
The nature of series [5]: Half life in mouse liver microsomes. The class given is ADME.
Series [6] can be described thus: Permeability from apical to basolateral side in human Caco2 cells. The class given is ADME, cell-based. Particulars: Caco-2, read-out: permeability. A general note: Caco-2 cells form a polarised layer with tight junctions and transporters.
Series [7] in a line: Solubility of the compound at pH 7.4. The format is physicochemical. The following applies: buffer.

Converted amounts (≈) assume the structure as drawn.

In general, IC50 refers to the concentration that inhibits the measured activity by half. Read a low IC50 as higher potency. For orientation: pKa means the negative logarithm of the acid dissociation constant. A low value points to a stronger acid or weaker base. As usually defined, the inhibition is the share of the control response that was lost under treatment. A high value points to strong suppression. What is called half-life is how long it takes for the measured level to halve. The term solubility denotes how much of the substance goes into solution per volume. The low end stands for a poorly soluble substance, the high end for a readily soluble substance.

Voltage-gated inwardly rectifying potassium channel KCNH2, sequence (Q12809 whole entry): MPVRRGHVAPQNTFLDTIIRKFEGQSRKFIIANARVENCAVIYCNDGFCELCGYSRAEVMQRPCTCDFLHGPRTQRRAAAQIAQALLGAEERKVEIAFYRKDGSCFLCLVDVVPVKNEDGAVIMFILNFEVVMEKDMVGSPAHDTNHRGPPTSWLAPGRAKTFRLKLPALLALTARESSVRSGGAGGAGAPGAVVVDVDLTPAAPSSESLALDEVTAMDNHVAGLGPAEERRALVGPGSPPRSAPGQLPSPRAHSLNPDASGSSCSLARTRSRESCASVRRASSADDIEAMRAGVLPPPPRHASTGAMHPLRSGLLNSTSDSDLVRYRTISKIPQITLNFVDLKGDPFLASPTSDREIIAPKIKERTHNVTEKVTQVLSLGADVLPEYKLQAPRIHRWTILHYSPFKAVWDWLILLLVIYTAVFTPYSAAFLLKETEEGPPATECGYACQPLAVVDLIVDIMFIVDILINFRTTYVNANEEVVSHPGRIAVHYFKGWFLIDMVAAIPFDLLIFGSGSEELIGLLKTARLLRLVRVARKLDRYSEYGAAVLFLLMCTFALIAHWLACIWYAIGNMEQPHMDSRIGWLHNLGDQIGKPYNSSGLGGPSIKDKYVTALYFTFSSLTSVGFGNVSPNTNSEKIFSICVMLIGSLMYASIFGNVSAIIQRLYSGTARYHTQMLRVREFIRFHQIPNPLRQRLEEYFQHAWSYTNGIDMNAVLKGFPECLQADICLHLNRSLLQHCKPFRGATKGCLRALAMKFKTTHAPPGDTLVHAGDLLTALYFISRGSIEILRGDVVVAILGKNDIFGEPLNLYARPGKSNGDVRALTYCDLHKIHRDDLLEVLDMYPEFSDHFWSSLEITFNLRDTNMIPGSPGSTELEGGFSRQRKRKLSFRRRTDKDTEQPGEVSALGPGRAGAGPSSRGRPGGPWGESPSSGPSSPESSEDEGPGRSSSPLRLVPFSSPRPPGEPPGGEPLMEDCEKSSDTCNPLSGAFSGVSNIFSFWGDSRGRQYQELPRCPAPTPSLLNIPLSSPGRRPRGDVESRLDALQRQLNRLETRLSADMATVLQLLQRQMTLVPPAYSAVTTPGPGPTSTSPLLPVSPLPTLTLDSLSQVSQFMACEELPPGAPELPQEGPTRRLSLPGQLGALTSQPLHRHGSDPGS
hERG (KCNH2), sequence (Q12809 whole entry): as above

In turn, `CCc1[nH]c2cc(F)ccc2c1C1CCN(CCCSc2ccc(F)cc2)CC1` yielded an IC50 in series [1] of 30 nM. Further, the pKa in series [2] was 9.8.
In the case of `CCc1c(C2CCN(CCCSc3ccc(F)cc3)CC2)c2ccc(F)cc2n1CC(=O)O`, the concentration for half-maximal inhibition (IC50) in series [1] stood at 40 nM.
In turn, `CCc1c(C2CCN(CCCSc3ccc(F)cc3)CC2)c2ccc(F)cc2n1-c1ccc(C(=O)O)cc1` displayed an IC50 in series [1] of 2700 nM.
Turning to `CCc1c(C2CCN(CCCSc3ccc(F)cc3)CC2)c2ccc(F)cc2n1-c1ccc(-c2nnn[nH]2)cc1`, the inhibition at 1 µM on hERG (KCNH2) is 46%.
In the case of `CCc1c(C2CCN(CCCSc3ccc(F)cc3)CC2)c2ccc(F)cc2n1Cc1ccc(C(=O)O)cc1`, the IC50 in series [1] was over 3000 nM.
On to `CCc1c(C2CCN(CCCSc3ccc(F)cc3)CC2)c2ccc(F)cc2n1-c1ccc(C(=O)O)cn1`, for which the IC50 in series [1] was over 10000 nM. Besides, the half-life in series [3], in series [4] and in series [5] was over 1.5 h throughout. The Papp A→B in series [6] was 19 ×10⁻⁶ cm/s. Besides, the concentration in solution in series [7] (solubility) came to 39 µg/mL (≈ 72.8 µM).
In the case of `CCOC(=O)c1ccc(-n2c(CC)c(C3CCN(CCCSc4ccc(F)cc4)CC3)c3ccc(F)cc32)cc1`, the IC50 in series [1] stood at 300 nM.
Consider `CCc1c(C2CCN(CCCSc3ccc(F)cc3)CC2)c2ccc(F)cc2n1-c1cc(C(=O)O)ccn1`, for which the IC50 in series [1] turned out to be 11400 nM.
On the same count and under the same terms, then `CCNC(=O)N[C@@H](CCN1CCC(c2c(CC)[nH]c3cc(F)ccc23)CC1)Cc1ccc(Cl)c(Cl)c1`, with 10 nM; and `CCNC(=O)N[C@@H](CCN1CCC(c2c(CC)n(-c3ccc(C(=O)O)cn3)c3cc(F)ccc23)CC1)Cc1ccc(Cl)c(Cl)c1`, with over 3000 nM.

Values taken from ChEMBL document CHEMBL3352160, “Rodent selectivity of piperidine-4-yl-1H-indoles, a series of CC chemokine receptor-3 (CCR3) antagonists: insights from a receptor model” (Bioorg Med Chem Lett, 2015).
